Measured values published in article PMC10721329, “Quisinostat is a brain-penetrant radiosensitizer in glioblastoma” (JCI Insight, 2023).
Values joined by “and” are separate entries in the source; they are usually repeats but may differ in a detail not shown here. Equal values may be shown once. Read-outs that look alike come from different tables or passages of the source.

Experiments:
[1] = Plasma pharmacokinetics by route of administration (IP, SC, OG); type: in vivo, athymic nude mice; details: for AUC(0-t): athymic nude (Foxn1nu), single dose 10 mg/kg, athymic nude mice, read-out: AUClast (plasma)
Description: Because the efficacy of QST in preclinical models of brain tumors remains controversial, and because previous studies employed various drug delivery methods, we sought to understand how different routes of administration affect the bioavailability of QST in mice. Three routes of administration were compared to determine the optimal dosing route to obtain the highest plasma exposure to QST over time. We treated athymic nude mice with a single dose of QST (10 mg/kg) through intraperitoneal (IP), subcutaneous (SC), or oral gavage (OG) delivery and collected blood at 0.5, 1, 2, 4, 6, 8, and 24 hours after dosing from individual mice for PK analysis (Figure 5A). […] Therefore, IP delivery was the optimal route of administration to maximize the bioavailability of QST in athymic nude mice.
QST concentrations in specimens were measured using reverse-phase LC on the AB SCIEX QTRAP6500+ LC-MS/MS system by operating electrospray in the positive ion mode. For liquid chromatographic separation, gradient elution was performed using a Phenomenex Kinetex F5 100 Å column (100 × 2.1 mm, 2.6 μm). The initial composition of the mobile phase was 70% phase A (0.1% formic acid in water) and 30% phase B (0.1% formic acid in 1:1 acetonitrile/methanol) with a 0.35 mL/min flow rate. Gradient elution was achieved as follows: mobile phase (B) was maintained at 30% from 0 to 0.3 minutes, increased to 95% from 0.3 to 0.8 minutes, maintained at 95% from 0.8 to 2.5 minutes, and decreased to 30% from 2.5 to 2.8 minutes. The total run time was 3.5 minutes. The internal standard used in this study was D8-infigratinib. The retention times for QST and D8-infigratinib were 1.6 and 1.8 minutes, respectively. Mass-to-charge ratio transitions were as follows: 395.20 → 144.00 (QST) and 568.08 → 321.00 (D8-infigratinib). LC-MS/MS analysis was performed using an Analyst 1.7 Chromatographic Data System. See Supplemental Methods for detailed PK experiments. […]
Preparation of QST for In Vivo Use
For in vivo preparation, QST was dissolved in 50% polyethylene glycol (PEG) 300, 50% sterile water solution for 10 mg/kg dosing. The suspension was then sonicated for 10 minutes to allow the drug to completely dissolve. Finally, the pH of both the drug and the vehicle solutions was adjusted to 7.4 before intraperitoneal dosing.
Determination of Optimal Administration Route
Foxn1nu nude male mice (The Jackson Laboratory) were used to determine the drug administration route that would result in the best QST bioavailability. Three cohorts of mice were treated with a single dose of 10 mg/kg QST delivered through intraperitoneal, subcutaneous, or oral gavage routes (3 mice per cohort). Following administration of the single dose, approximately 30 µL of blood was drawn from the tip of the tails at the following time points: 0.5, 1, 2, 4, 6, 8, and 24 hours. The collected blood was immediately centrifuged at 3000 rpm for 10 minutes at 4 °C to separate plasma, which was subsequently flash frozen. At the 24 - hour time point, following the last blood sample collection, mice were sacrificed and the whole brains from each mouse were dissected and flash-frozen for subsequent analysis. […]
Calibration Standards and Quality Control Samples
Stock solutions of standard (1 mM QST) and IS (250 µM D8-infigratinib) were prepared in acetonitrile. Working solutions for calibration curve standards and quality controls (QCs) were prepared by dilutions with a 40% methanol mixture aqueous solution. The IS precipitation solution (10 nM) was prepared from the IS stock solutions by dilution with methanol. Calibration standards and batch qualifying QCs were freshly spiked for every batch. For sample analysis in human and mouse matrices, calibration standards were prepared in bulk by spiking appropriate amounts of working solutions into blank human plasma, used as a surrogate matrix due to the instability of QST in mouse plasma. For sample analysis in neural stem cell media and cell […]

[2] = test system: GB126 cells; assay: Annexin V / ViaDye Red flow cytometry (apoptosis); type: cell-based, human; details: 86 nM QST
Text: (§1) For apoptosis analysis, the Dead Cell Apoptosis Kit with Annexin V FITC and Propidium Iodide for Flow Cytometry (Thermo Fisher Scientific, V13242) was followed using the manufacturer instructions, with the exception that we employed ViaDye Red Fixable Viability Dye Kit (Cytek, SKU R7-60008) instead of propidium iodide to label necrotic cells. Samples were run on the AURORA 3L 24 color spectrum cytometers (Cytek), unmixed by SpectroFlo application, and analyzed with FlowJo 10.8.1 software (Beckton Dickinson). Recommended negative controls for flow cytometry include (1) no Annexin V FITC and no ViaDye Red, (2) Annexin V FITC alone, and (3) ViaDye Red alone. The following gating strategy was used: debris population was excluded as the subset of cells with low forward scatter in the forward scatter area versus side scatter area plot. After excluding the debris, cells were gated on the Annexin versus ViaDye Red log plot with the classification as live (Annexin V negative, ViaDye Red negative), early apoptotic (Annexin V positive, ViaDye Red negative), late apoptotic (Annexin V positive, ViaDye Red positive), or necrotic (Annexin V negative, ViaDye Red positive). The frequency of the different cell subsets was reported as frequency on the total cell population, excluding debris. […]

[3] = test system: BT145 cells; assay: Annexin V / ViaDye Red flow cytometry (apoptosis); type: cell-based, human; details: 75 nM QST
Text: as §1

[4] = representative plot, quadrant assigned by inference

**Q.** For Cn1cc(CNCC2CCN(c3ncc(C(=O)NO)cn3)CC2)c2ccccc21 [QST, quisinostat], which “[QST] in plasma” value ([1]; IP 10 mg/kg single dose, 0.5 h, individual mice, 10 mg/kg) is on record?
**A.** 347 nmol/L and 1180 nmol/L and 730 nmol/L

**Q.** What about the “[QST] in plasma” value ([1]; IP 10 mg/kg single dose, 1 h, individual mice, 10 mg/kg) of the same compound?
**A.** 268 nmol/L and 778 nmol/L and 432 nmol/L

**Q.** What about the “[QST] in plasma” value ([1]; IP 10 mg/kg single dose, 2 h, individual mice, 10 mg/kg) of the same compound?
**A.** 70.8 nmol/L and 154 nmol/L and 237 nmol/L

**Q.** And the “[QST] in plasma” value ([1]; IP 10 mg/kg single dose, 4 h, individual mice, 10 mg/kg)?
**A.** 22.3 nmol/L and 40.2 nmol/L and 126 nmol/L

**Q.** What about the “[QST] in plasma” value ([1]; IP 10 mg/kg single dose, 6 h, individual mice, 10 mg/kg) of the same compound?
**A.** 12.5 nmol/L and 15.1 nmol/L and 47 nmol/L

**Q.** And the “[QST] in plasma” value ([1]; IP 10 mg/kg single dose, 8 h, individual mice, 10 mg/kg)?
**A.** 8.68 nmol/L

**Q.** And the “[QST] in plasma” value ([1]; IP 10 mg/kg single dose, 24 h, individual mice, 10 mg/kg)?
**A.** 0.963 nmol/L and 0.894 nmol/L

**Q.** And the “[QST] in plasma” value ([1]; OG 10 mg/kg single dose, 0.5 h, individual mice)?
**A.** not detectable and 7.12 nmol/L

**Q.** What about the “[QST] in plasma” value ([1]; OG 10 mg/kg single dose, 1 h, individual mice) of the same compound?
**A.** not detectable and 4.92 nmol/L

**Q.** What about the “[QST] in plasma” value ([1]; OG 10 mg/kg single dose, 2 h, individual mice) of the same compound?
**A.** not detectable and 10.8 nmol/L

**Q.** What about the “[QST] in plasma” value ([1]; OG 10 mg/kg single dose, 4 h, individual mice) of the same compound?
**A.** not detectable and 44.7 nmol/L and 3.91 nmol/L

**Q.** And the “[QST] in plasma” value ([1]; OG 10 mg/kg single dose, 6 h, individual mice)?
**A.** not detectable and 5.16 nmol/L

**Q.** And the “[QST] in plasma” value ([1]; OG 10 mg/kg single dose, 8 h, individual mice)?
**A.** not detectable and 1.29 nmol/L and 4.22 nmol/L

**Q.** And the “[QST] in plasma” value ([1]; OG 10 mg/kg single dose, 24 h, individual mice)?
**A.** not detectable and 0.965 nmol/L

**Q.** And the “[QST] in plasma” value ([1]; SC 10 mg/kg single dose, 0.5 h, individual mice, 10 mg/kg)?
**A.** 482 nmol/L and 355 nmol/L

**Q.** And the “[QST] in plasma” value ([1]; SC 10 mg/kg single dose, 1 h, individual mice, 10 mg/kg)?
**A.** 617 nmol/L and 493 nmol/L

**Q.** What about the “[QST] in plasma” value ([1]; SC 10 mg/kg single dose, 2 h, individual mice, 10 mg/kg) of the same compound?
**A.** 169 nmol/L and 281 nmol/L and 430 nmol/L

**Q.** What about the “[QST] in plasma” value ([1]; SC 10 mg/kg single dose, 4 h, individual mice, 10 mg/kg) of the same compound?
**A.** 41.6 nmol/L and 61.2 nmol/L and 96.2 nmol/L

**Q.** What about the “[QST] in plasma” value ([1]; SC 10 mg/kg single dose, 6 h, individual mice, 10 mg/kg) of the same compound?
**A.** 14.4 nmol/L and 21.7 nmol/L and 34.8 nmol/L

**Q.** And the “[QST] in plasma” value ([1]; SC 10 mg/kg single dose, 8 h, individual mice, 10 mg/kg)?
**A.** 7.48 nmol/L and 13.4 nmol/L and 15.5 nmol/L

**Q.** What about the “[QST] in plasma” value ([1]; SC 10 mg/kg single dose, 24 h, individual mice, 10 mg/kg) of the same compound?
**A.** 0.909 nmol/L and 0.187 nmol/L and 0.208 nmol/L

**Q.** What about the concentration at 8 h ([1]; male, Foxn1nu athymic nude, mouse, plasma, ip, 10 mg/kg, IP 10 mg/kg single dose, 8 h, individual mice, read-out: [QST] in plasma) of the same compound?
**A.** 15.9 nM

**Q.** What about the concentration at 24 h ([1]; male, Foxn1nu athymic nude, mouse, plasma, ip, 10 mg/kg, IP 10 mg/kg single dose, 24 h, individual mice, read-out: [QST] in plasma) of the same compound?
**A.** 1.2 nM

**Q.** What about the concentration at 0.5 h ([1]; male, Foxn1nu athymic nude, mouse, plasma, oral, 10 mg/kg, OG 10 mg/kg single dose, 0.5 h, individual mice, read-out: [QST] in plasma) of the same compound?
**A.** 8.17 nM

**Q.** And the concentration at 1 h ([1]; male, Foxn1nu athymic nude, mouse, plasma, oral, 10 mg/kg, OG 10 mg/kg single dose, 1 h, individual mice, read-out: [QST] in plasma)?
**A.** 7.64 nM

**Q.** What about the concentration at 2 h ([1]; male, Foxn1nu athymic nude, mouse, plasma, oral, 10 mg/kg, OG 10 mg/kg single dose, 2 h, individual mice, read-out: [QST] in plasma) of the same compound?
**A.** 8.86 nM

**Q.** What about the concentration at 6 h ([1]; male, Foxn1nu athymic nude, mouse, plasma, oral, 10 mg/kg, OG 10 mg/kg single dose, 6 h, individual mice, read-out: [QST] in plasma) of the same compound?
**A.** 4.91 nM

**Q.** What about the concentration at 24 h ([1]; male, Foxn1nu athymic nude, mouse, plasma, oral, 10 mg/kg, OG 10 mg/kg single dose, 24 h, individual mice, read-out: [QST] in plasma) of the same compound?
**A.** 0.81 nM

**Q.** And the concentration at 0.5 h ([1]; male, Foxn1nu athymic nude, mouse, plasma, sc, 10 mg/kg, SC 10 mg/kg single dose, 0.5 h, individual mice, read-out: [QST] in plasma)?
**A.** 300 nM

**Q.** What about the concentration at 1 h ([1]; male, Foxn1nu athymic nude, mouse, plasma, sc, 10 mg/kg, SC 10 mg/kg single dose, 1 h, individual mice, read-out: [QST] in plasma) of the same compound?
**A.** 418 nM

**Q.** And the concentration at 8 h ([1]; male, Foxn1nu athymic nude, mouse, plasma, IP 10 mg/kg single dose, 8 h, individual mice, read-out: [QST] in plasma)?
**A.** 25.7 nM

**Q.** And the AUC(0-t) ([1]; male, mouse, plasma, oral, OG)?
**A.** 0.106 µM·h

**Q.** What about the AUC(0-t) ([1]; male, mouse, plasma, IP) of the same compound?
**A.** 1.2 µM·h

**Q.** What about the AUC(0-t) ([1]; male, mouse, plasma, SC) of the same compound?
**A.** 1.19 µM·h

**Q.** What about the “Apoptotic, Annexin+ ViaDye - (%)” value ([2]; replicates) of the same compound?
**A.** 9.54% and 12.5% and 8.59%

**Q.** What about the “Dead, Annexin+ ViaDye + (%)” value ([2]; replicates) of the same compound?
**A.** 12.7% and 14.5% and 9.91%

**Q.** What about the “ViaDyeRed / Annexin V-FITC dot plot quadrant, live (Annexin-, ViaDye-)” value [2, 4] of the same compound?
**A.** 71.9

**Q.** And the “ViaDyeRed / Annexin V-FITC dot plot quadrant, necrotic (Annexin-, ViaDye+)” value [2, 4]?
**A.** 5.85

**Q.** And the “Apoptotic, Annexin+ ViaDye - (%)” value ([3]; replicates)?
**A.** 60% and 53.4% and 59.8%

**Q.** And the “Dead, Annexin+ ViaDye + (%)” value ([3]; replicates)?
**A.** 5.66% and 6.66% and 4.49%

**Q.** And the “ViaDyeRed / Annexin V-FITC dot plot quadrant, live (Annexin-, ViaDye-)” value [3, 4]?
**A.** 39.3

**Q.** And the “ViaDyeRed / Annexin V-FITC dot plot quadrant, necrotic (Annexin-, ViaDye+)” value [3, 4]?
**A.** 0.65
